Measurements published in patent EP2048133A1 (Pharmeste S.r.l., priority 2007, dated 2009).
Values after ≈ are worked out from the molar mass of the structure shown. Read-outs that look alike come from different tables or passages of the source.

How the values were obtained:
[1] = Thermodynamic solubility in PBS; type: physicochemical; conditions: phosphate buffer pH 7.4, room temperature, stirring 36h, HPLC
Protocol: The standard solution was prepared by dissolving 1.4 mg of V405 in 10 mL of acetonitrile. A saturated solution of V405 was prepared by stirring 10 mL of phosphate buffer pH 7.4 in the presence of 10 mg of compound. The stirring was conducted at room temperature for 36h. The supernatant was filtered through a Millipore […] filter and 10 µL were used as sample for the HPLC determination. (Eluents: A = Water with 0.1% TFA, B = Acetonitrile + 0.1% TFA, Gradient: 0-100% B in 25 min, Column: SYMMETRY 300 C18 5 µM; 4,6 X 150 MM, […]). The solubility was determined by the following relationship: C'= percent area' C/percent area where C= concentration of standard solution (mg/ml), percent area': area of the peak of standard solution, percent area: area of the peak of saturated solution, C'= concentration of the saturated solution. The solubility was then expressed as […].

CYP1A2 = target: T1, CYP1A2 (Homo sapiens, UniProt P05177); test: Fluorometric cytochrome P450 inhibition assay; type: in vitro ADME; conditions: tested from 0.1 µM to 10 µM, 37°C, read-out: Cytochrome P450 subtypes µM inhibition (estimated IC50) CYP1A2
T1 sequence (P05177 1-516): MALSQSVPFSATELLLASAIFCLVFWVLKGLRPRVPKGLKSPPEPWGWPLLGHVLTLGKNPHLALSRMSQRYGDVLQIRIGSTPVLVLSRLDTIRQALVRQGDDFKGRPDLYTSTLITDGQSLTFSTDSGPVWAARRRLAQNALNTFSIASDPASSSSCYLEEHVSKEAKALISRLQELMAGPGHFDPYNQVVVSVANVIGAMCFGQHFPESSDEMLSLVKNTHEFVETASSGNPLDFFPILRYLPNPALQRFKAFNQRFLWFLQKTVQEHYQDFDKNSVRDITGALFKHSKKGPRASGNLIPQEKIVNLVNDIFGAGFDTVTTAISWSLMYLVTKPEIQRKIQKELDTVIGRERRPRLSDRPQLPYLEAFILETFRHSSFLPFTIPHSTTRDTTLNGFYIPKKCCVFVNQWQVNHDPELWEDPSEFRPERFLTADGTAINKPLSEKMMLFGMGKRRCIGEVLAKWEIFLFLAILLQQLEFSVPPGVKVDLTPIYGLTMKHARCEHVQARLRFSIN
Protocol: (§1) A microtiter plate-based, direct, fluorometric assay was performed to analyze V405 inhibition potential of activities catalyzed by six of the major human liver cytochromes P450 (CYP) enzymes: CYP1A2, CYP2C9, CYP2C19, CYP2D6, CYP2E1 and CYP3A4. The six cytochrome P450 subtypes inhibition was tested from 0.1 µM to10 µM.
(§2) Four dilution points were evaluated (10 µM, 2.15 µM, 0.46 µM and 0.1 µM). A lid was placed on the plate and plate was placed at 37°C in a plate incubator for at least 10 minutes (to pre-warm the buffer and the plate). The reaction started when 0.1 mL enzyme/substrate solution mix was added to test wells. The plate was mixed and the reaction was continued incubating the lid-covered plate at 37°C for the desired time.
(§3) A stop solution was then added to all wells. and an enzyme/substrate mix was dispensed to the inverted blank wells (negative controls).
(§4) >The IC50 was calculated with a typical logistic curve fitting : % Inib = (Min-Max)/(1 + ((Conc)/(IC50)())^p) + Max [formula]

CYP2C19 = CYP2C19 (Homo sapiens, UniProt P33261); test: Fluorometric cytochrome P450 inhibition assay; type: in vitro ADME; conditions: tested from 0.1 µM to 10 µM, 37°C, read-out: Cytochrome P450 subtypes µM inhibition (estimated IC50) CYP2C19
Chain of CYP2C19 (P33261 whole entry): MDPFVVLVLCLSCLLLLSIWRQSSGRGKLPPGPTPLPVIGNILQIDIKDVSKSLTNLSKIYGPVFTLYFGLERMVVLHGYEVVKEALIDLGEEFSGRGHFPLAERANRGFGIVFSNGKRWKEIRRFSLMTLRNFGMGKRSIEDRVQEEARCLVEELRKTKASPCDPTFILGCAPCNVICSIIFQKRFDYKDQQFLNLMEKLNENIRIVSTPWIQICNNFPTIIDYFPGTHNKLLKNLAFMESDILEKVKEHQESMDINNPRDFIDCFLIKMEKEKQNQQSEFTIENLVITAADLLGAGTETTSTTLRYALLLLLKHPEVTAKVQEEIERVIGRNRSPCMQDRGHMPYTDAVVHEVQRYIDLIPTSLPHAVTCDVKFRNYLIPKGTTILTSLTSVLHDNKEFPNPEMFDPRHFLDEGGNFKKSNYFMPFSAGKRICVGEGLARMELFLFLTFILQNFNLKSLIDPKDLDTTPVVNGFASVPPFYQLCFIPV
Protocol: as §1, §2, §3, §4

CYP2C9 = CYP2C9 (Homo sapiens, UniProt P11712); test: Fluorometric cytochrome P450 inhibition assay; type: in vitro ADME; conditions: tested from 0.1 µM to 10 µM, 37°C, read-out: Cytochrome P450 subtypes µM inhibition (estimated IC50) CYP2C9
Chain of CYP2C9 (P11712 whole entry): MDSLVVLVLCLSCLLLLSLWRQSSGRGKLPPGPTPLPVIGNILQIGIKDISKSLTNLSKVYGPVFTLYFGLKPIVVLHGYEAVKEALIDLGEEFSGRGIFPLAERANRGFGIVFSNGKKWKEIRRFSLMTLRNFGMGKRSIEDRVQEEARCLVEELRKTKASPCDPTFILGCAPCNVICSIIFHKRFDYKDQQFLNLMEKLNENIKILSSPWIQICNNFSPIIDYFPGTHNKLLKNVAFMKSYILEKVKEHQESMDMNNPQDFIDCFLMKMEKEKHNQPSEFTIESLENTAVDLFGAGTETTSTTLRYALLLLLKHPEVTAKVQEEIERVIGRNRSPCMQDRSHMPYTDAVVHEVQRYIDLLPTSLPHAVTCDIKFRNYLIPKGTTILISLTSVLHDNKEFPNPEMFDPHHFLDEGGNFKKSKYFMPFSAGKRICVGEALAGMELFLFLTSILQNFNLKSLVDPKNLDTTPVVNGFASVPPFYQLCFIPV
Protocol: as §1, §2, §3, §4

CYP2D6 = CYP2D6 (Homo sapiens, UniProt P10635); test: Fluorometric cytochrome P450 inhibition assay; type: in vitro ADME; conditions: tested from 0.1 µM to 10 µM, 37°C, read-out: Cytochrome P450 subtypes µM inhibition (estimated IC50) CYP2D6
Chain of CYP2D6 (P10635 whole entry): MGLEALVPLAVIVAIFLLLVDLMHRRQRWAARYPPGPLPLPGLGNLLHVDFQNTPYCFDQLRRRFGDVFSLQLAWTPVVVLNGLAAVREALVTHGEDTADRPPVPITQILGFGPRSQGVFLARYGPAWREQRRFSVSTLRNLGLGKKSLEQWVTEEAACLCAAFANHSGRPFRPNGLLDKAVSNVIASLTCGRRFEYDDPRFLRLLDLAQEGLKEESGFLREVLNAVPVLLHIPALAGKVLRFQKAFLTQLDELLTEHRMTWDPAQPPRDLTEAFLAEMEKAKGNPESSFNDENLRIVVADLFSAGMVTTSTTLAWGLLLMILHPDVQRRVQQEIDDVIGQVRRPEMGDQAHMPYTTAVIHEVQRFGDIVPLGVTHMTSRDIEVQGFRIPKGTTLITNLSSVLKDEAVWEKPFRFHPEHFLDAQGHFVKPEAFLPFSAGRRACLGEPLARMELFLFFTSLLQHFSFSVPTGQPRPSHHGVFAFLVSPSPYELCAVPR
Protocol: as §1, §2, §3, §4

CYP2E1 = CYP2E1 (Homo sapiens, UniProt P05181); test: Fluorometric cytochrome P450 inhibition assay; type: in vitro ADME; conditions: tested from 0.1 µM to 10 µM, 37°C, read-out: Cytochrome P450 subtypes µM inhibition (estimated IC50) CYP2E1
Chain of CYP2E1 (P05181 whole entry): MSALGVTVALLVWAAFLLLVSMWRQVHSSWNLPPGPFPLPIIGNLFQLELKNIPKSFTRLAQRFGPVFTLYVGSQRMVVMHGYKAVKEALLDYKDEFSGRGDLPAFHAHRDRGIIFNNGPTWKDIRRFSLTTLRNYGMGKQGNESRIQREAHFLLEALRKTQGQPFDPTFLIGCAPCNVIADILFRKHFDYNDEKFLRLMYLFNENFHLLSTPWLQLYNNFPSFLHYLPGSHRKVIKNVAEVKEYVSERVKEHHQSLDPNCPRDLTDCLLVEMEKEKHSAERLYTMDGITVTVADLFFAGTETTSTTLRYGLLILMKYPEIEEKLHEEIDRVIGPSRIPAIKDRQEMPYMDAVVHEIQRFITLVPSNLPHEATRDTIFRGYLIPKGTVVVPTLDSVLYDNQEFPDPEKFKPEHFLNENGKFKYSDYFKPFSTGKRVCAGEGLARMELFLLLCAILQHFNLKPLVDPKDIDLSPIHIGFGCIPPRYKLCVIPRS
Protocol: as §1, §2, §3, §4

CYP3A4 = CYP3A4 (Homo sapiens, UniProt P08684); test: Fluorometric cytochrome P450 inhibition assay; type: in vitro ADME; conditions: tested from 0.1 µM to 10 µM, 37°C, read-out: Cytochrome P450 subtypes µM inhibition (estimated IC50) CYP3A4
Chain of CYP3A4 (P08684 whole entry): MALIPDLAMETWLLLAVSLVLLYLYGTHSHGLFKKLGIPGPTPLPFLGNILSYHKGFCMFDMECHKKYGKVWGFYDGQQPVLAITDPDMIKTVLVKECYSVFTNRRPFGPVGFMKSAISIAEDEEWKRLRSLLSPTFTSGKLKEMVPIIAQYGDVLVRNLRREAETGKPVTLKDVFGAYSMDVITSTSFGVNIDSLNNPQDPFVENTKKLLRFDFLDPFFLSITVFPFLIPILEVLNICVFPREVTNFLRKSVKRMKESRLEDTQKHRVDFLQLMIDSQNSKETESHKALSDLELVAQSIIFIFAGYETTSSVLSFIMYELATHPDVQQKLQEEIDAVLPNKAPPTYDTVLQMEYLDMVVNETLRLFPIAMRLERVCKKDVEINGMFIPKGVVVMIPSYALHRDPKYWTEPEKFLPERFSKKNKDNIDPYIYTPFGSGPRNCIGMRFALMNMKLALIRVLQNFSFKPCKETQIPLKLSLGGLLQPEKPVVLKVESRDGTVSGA
Protocol: as §1, §2, §3, §4

[2] = system: six of the major human liver cytochromes P450 (CYP) enzymes; test: Cytochrome P450 inhibition, whole panel (qualitative statement); type: in vitro ADME; conditions: panel of six CYPs, each concentration tested (0.1-10 µM)
Protocol: as §1, §2, §3, §4

[3] = target: T2, TRPV1 expressed in rat spinal cord (Rattus norvegicus, UniProt O35433); test: Radioligand binding assay ([3H]-RTX, spinal cord membranes)
T2 construct: the spinal cord was removed and disrupted using a Polytron tissue homogenizer; from tissue; host or cells: rat spinal cord membranes
T2 sequence (O35433 whole entry): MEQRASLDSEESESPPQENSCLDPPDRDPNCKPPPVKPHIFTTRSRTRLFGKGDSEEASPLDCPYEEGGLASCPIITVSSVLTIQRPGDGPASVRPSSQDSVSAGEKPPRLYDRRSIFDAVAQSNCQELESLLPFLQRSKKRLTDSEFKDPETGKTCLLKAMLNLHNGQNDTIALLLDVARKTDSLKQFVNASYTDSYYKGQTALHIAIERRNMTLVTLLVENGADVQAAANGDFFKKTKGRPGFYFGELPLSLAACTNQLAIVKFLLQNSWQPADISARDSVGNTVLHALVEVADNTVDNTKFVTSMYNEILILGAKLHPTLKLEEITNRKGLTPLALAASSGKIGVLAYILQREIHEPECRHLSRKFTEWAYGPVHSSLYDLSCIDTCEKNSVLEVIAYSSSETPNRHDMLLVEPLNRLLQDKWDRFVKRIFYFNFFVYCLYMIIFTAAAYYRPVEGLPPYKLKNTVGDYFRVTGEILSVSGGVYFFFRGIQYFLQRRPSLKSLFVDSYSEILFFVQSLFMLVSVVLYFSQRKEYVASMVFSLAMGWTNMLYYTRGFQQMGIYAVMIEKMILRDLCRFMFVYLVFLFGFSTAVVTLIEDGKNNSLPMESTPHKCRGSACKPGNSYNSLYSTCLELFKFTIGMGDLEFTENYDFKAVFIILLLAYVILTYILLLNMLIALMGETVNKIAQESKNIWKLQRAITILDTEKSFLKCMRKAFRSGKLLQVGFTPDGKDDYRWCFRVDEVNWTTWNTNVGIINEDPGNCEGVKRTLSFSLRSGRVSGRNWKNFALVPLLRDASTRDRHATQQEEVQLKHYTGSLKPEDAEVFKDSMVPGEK
Protocol: Male Sprague-Dawley rats with body weight between 250 to 350 g at the time for testing were used. For binding assays rats were sacrificed by decapitation under anesthesia and the spinal cord was removed and disrupted using a Polytron tissue homogenizer in ice cold buffer containing 5 mM KCl, 5.8 mM NaCl, 0.75 mM CaCl2, 2 mM MgCl2, 320 mM sucrose, 10 mM Hepes, pH 8.6.^5 The homogenized tissue was centrifuged at 1000 x g for 10 min at 4°C and the supernatant was centrifuged again at 35000 x g for 30 min at 4°C (Beckman Avanti J25). The pellet was resuspended in the same buffer as described above and used in binding experiments. In saturation experiments, 150 µg protein/sample from membrane suspensions were incubated with [^3H]-Resiniferatoxin ([^3H]-RTX) (0.003-3 nM) in the assay buffer containing 0.25 mg/ml fatty acid-free bovine serum albumin at 37°C for 60 min. In competition experiments, the membranes were incubated at 37°C for 60 min with [^3H]RTX (0.4 nM) and with increasing concentrations (from 0.1 nM to 3 µM) of examined compounds.
Non specific binding was evaluated in the presence of 1 µM RTX. After incubation the reaction mixture was cooled at 0°C and incubated with bovine α1-acid glycoprotein (200 µg per tube) for 15 min to reduce non-specific RTX binding. Membrane-bound RTX was separated from free RTX by centrifuging the samples at 18500 x g for 15 min. The tip of the microcentrifuge tube containing the pellet was cut off and the radioactivity was determined by scintillation counting (Packard 2500 TR). Protein concentration was determined according to a Bio-Rad method with bovine serum albumin as a standard reference (Bradford, 1976). Saturation and competition studies were analyzed with the Ligand program.

TRPV1 expressing neurons = target: T3, TRPV1 expressing neurons (Rattus norvegicus, UniProt O35433); test: Ca2+ fluorescence measurements in cultured dorsal root ganglia neurones; type: cell-based
T3 construct: Adult rats were terminally anaesthetized and decapitated; Dorsal root ganglia were removed; endogenous in cells; host or cells: primary cultured adult rat dorsal root ganglia neurons
T3 sequence (O35433 whole entry): as above
Protocol: Adult rats were terminally anaesthetized and decapitated. […] The ganglia, placed in cold DMEM supplemented with 10% fetal bovine serum, 2 mM L-glutamine, 100 U/ml penicillin and 100 µg/ml streptomycin, were dissociated in single cells by several passages through a series of syringe needles (23G down to 25G). The medium and the ganglia were filtered to remove debris, topped up with 8 ml of DMEM medium and centrifuged (200 x g for 5 min). […] The cells were then washed twice with the Ca^2+ buffer solution and transferred to a chamber on the stage of a Nikon eclipse TE300 microscope. […] A calibration curve was set up using buffer containing Fura-2-AM-ester and determinant concentrations of free Ca^2+. This curve was then used to convert the data obtained from the F340/F380 ratio to [Ca^2+]¡ (nM).

[4] = Capsaicin-induced secondary allodynia; type: in vivo, rat; conditions: 30 µmol/kg orally 2 hours prior to capsaicin (5 nmols/50 µl/paw); 30 min after capsaicin challenge
Protocol: Capsaicin (5 nmols/50 µl/paw) was injected in the plantar surface of the glabrous skin of the right paw of rats anesthetized with diethyl ether (Chaplan et al., 1994). Compound V405 was orally administrated (30 µmol/kg) 2 hours prior to capsaicin injection. Tactile allodynia was evaluated 30 min after capsaicin challenge.

[5] = Body temperature measurements; type: in vivo, rat; conditions: 30 µmol/kg orally; for body temperature change: monitored for more than 3 hours
Protocol: Rats were placed in individual cages at room temperature (22-25°C). Rectal temperatures were recorded from awake animals by repeated insertion of a lubricated rectal thermocouple probe (model-8402-00, Cole-Palmer Instrument Company) prior to and following orally administration of V405 at 30 µmil/kg.

[6] = 0.1 µM capsaicin; mean and 95% fiducial limits; read-out: IC50 of inhibition of capsaicin-evoked [Ca2+]i mobilization

With `O=C(Nc1ccc(Cl)cc1)c1ccc(-c2cccc3cnccc23)[n+]([O-])c1` [Example V405] the solubility thermodynamic at 36 h ([1]; 2160 min) was 106.4 µM (≈ 40 µg/mL), the solubility thermodynamic at 36 h ([1]; phosphate buffer, pH 7.4, aqueous buffer) was 106 µM (≈ 39.8 µg/mL) and the IC50 (CYP1A2) was greater than 10 µM. For the same compound, the IC50 (CYP2C19) was greater than 10 µM, the IC50 (CYP2C9) was greater than 10 µM and the IC50 (CYP2D6) was greater than 10 µM. For the same compound, the IC50 (CYP2E1) was greater than 10 µM, the IC50 (CYP3A4) was greater than 10 µM and the “interaction with the evaluated cytochromes” value [2] was “does not interact”. For the same compound, the Ki [3] was 203 nM, the IC50 (TRPV1 expressing neurons; read-out: IC50 of inhibition of capsaicin-evoked [Ca2+]i mobilization; 0.1 µM capsaicin; mean and 95% fiducial limits) was 15 nM and the “preventive effect against the pro-allodinic effect of capsaicin” value [4] was 55%. The body temperature change [5] was “No significant temperature change” and the body temperature change ([5]; listed as compound 1) was “does not cause thermal increase”.
`COc1cccc(NC(=O)/C=C/c2ccc(Cl)cc2)c1` [SB-366791, (E)-3-(4-chlorophenyl)-N-(3-methoxyphenyl)acrylamide] gave a Ki ([3]; competition with [3H]RTX (0.4 nM), 37°C, 60 min, read-out: Ki) of 36 nM and an IC50 (TRPV1 expressing neurons; [6]) of 8.7 nM.
`C=C(C)[C@]12C[C@@H](C)[C@@]34O[C@](Cc5ccccc5)(O[C@@H]1[C@@H]3C=C(COC(=O)Cc1ccc(O)c(OC)c1)C[C@]1(O)C(=O)C(C)=C[C@@H]41)O2` [[^3H]-RTX, [^3H]-Resiniferatoxin] gave a Kd ([3]; saturation curve, [3H]-RTX 0.003-3 nM, 37°C, 60 min, mean (95% limits)) of 0.21 nM.
For `Oc1cc2c(cc1O)CN(C(=S)NCCc1ccc(Cl)cc1)CCC2` [capsazepine], the IC50 (TRPV1 expressing neurons; [6]) was 948 nM.
For `O=C(Nc1ccc(Cl)cc1)c1ccc(-c2cccc3cnccc23)nc1` [non-oxidized homologous, N-(4-chlorophenyl)-6-(isoquinolin-5-yl)pyridine-3-carboxamide, reference compound], the Thermodynamic solubility [1] was “not soluble” and the “temperature increase (mean value) with respect to control animals” value ([5]; during the whole experiment (more than 3 hours)) was “+0.5 °C”.
